The record followed here is patent EP2325185A1, “Plk inhibitor” (GPC Biotech AG, priority 2009, dated 2011).

Assay type in all cases: cell-based
For one assay, the target named is Plk1 (Homo sapiens, UniProt P53350). Briefly: Cellular Plk1 kinase activity: nucleophosmin (B23) Ser4 phosphorylation in HCT116 cells (MSD electrochemiluminescence). The settings on record: nocodazole-treated, 4 hours compound exposure, read-out: Biochemical IC50 Nucleophosmin assay. As for the experimental part: Cellular Plk1 kinase activity was measured by quantification of nucleophosmin (B23) Ser4 phosphorylation in a cancer cell line. Nucleophosmin (B23) Ser4 is phosphorylated by Plkl, and this phosphorylation can be specifically detected by cross-reactivity of a phospho-Mekl/2 antibody that is able to recognizes a mitotic-specific phosphorylated form of nucleophosmin (B23) in a nocodazole dependent way (Zhang, H., Shi, X., Paddon, H., Hampong, M., Dai, W., and Pelech, S. (2004) B23/Nuleophosmin Serin 4 Phosphorylation Mediates Mitotic Functions of Polo-like Kinase 1. J. Biol. Chem., 279(34), 35726-35734).
Chain of Plk1 (P53350 whole entry, species assumed): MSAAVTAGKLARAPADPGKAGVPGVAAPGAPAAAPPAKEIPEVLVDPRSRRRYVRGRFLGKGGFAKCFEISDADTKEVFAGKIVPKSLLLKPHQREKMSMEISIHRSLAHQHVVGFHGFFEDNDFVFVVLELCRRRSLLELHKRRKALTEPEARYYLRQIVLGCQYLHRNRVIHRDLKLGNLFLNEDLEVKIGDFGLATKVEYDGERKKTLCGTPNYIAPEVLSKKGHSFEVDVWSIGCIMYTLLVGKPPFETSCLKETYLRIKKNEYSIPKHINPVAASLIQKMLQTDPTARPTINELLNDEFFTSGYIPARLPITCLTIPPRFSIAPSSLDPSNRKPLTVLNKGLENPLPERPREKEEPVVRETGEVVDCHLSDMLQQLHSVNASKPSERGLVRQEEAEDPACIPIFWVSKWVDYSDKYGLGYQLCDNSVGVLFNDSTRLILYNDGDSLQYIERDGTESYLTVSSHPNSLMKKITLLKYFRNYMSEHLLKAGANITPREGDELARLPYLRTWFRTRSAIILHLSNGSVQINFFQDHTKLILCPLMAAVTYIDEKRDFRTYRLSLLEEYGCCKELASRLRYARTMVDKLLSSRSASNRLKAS
Briefly, HCT116 cells (ATCC, Order No. CCL-247) were plated in 96 well dishes 24 hours prior to nocodazole treatment at 25 000 cells per well. Cells were then treated with 100 ng/ml nocodazole (Sigma-Aldrich, # M1404). […]
The cell lysates were thawed at room temperature and 40 µl were incubated on 96-well MULTI-ARRAY High Bind plates (L11XB; MSD) for 1.5 - 2 hours at room temperature. […] Then, 150 µl of 1x Read Buffer T (R92TC; MSD) were carefully added to each well and the plates were quantitatively detected for each well with a SECTOR™ Imager 6000 (MSD).
Inhibitory activity of the compound (IC) was calculated as % inhibition of nucleophosmin (B23) Ser4 phosphorylation compared to cells […].

For the next assay, the system named is HT-29. Nature of the assay: SRB cell proliferation assay, HT-29. The settings on record: Homo sapiens, HT-29; 72 hours, SRB; read-out: CELLULAR IC50 HT-29. As for the experimental part: (§1) Cells were exposed to the test compound racemate at various concentrations appropriate to determine an IC50 for 72 hours. Cell proliferation was measured using the SRB assay according to Shekan et al (J Natl Cancer Inst (1990) 82, 1107-112) in order to estimate the IC50 values shown in Table 3. Briefly, cells were plated in 96 well dishes 24 hours prior to compound addition at the densities specified in Table 5.1. The assay was terminated with the addition of cold TCA to a final concentration of 10% after growth medium has been removed and the plates were incubated over night at 4°C. The plates were then washed 5 times with water and 100µl of a Sulforhodamine B solution ([…]) was added to each well. The plates were then incubated for 10 minutes at room temperature before removal of unbound dye by washing with 1% acetic acid. The bound dye was solubilised with 10 mM Trizma base and the absorbance read at OD520.
(§2) Inhibitory activity of the compound (IC) was calculated as % inhibition of cell proliferation compared to cells treated with the solvent (DMSO).
(§3) Table 8.1: 18-Cell Line Panel

The test system of the next assay is HCT 116. Nature of the assay: SRB cell proliferation assay, HCT 116. As to conditions: Homo sapiens, HCT-116; 72 hours, SRB; read-out: CELLULAR IC50 HCT 116. Here is the method: as §1, §2, §3
A further assay has as its system IMR-90. Nature of the assay: SRB cell proliferation assay, IMR-90. As to conditions: Homo sapiens, IMR-90; 72 hours, SRB; read-out: CELLULAR IC50 IMR-90. Here is the method:
as §1, §2, §3

Regarding `CCC1C(=O)N(C)c2cnc(Nc3ccc(C(=O)N[C@H]4CC[C@H](N5CCN(CC6CC6)CC5)CC4)cc3OC)nc2N1N(C)C` (mixture of isomers) [racemic mixture containing compound 1 and (S)-enantiomer, N-[trans-4-(4-Cyclopropylmethyl-piperazin-1-yl)-cyclohexyl]-4-(8-dimethylamino-7-ethyl-5-methyl-6-oxo-5,6,7,8-tetrahydro-pteridin-2-ylamino)-3-methoxy-benzamide], the IC50 at Plk1 is below 100 nM; in the assay on HT-29 it was below 1000 nM; in the assay with HCT 116, below 1000 nM; in the assay on IMR-90, above 1000 nM.
